According to PMC11356839, “The Synthesis of SNAC Phenolate Salts and the Effect on Oral Bioavailability of Semaglutide” (Molecules, 2024):

Legend:
[1] = rat, in vivo
Method: All compounds are powders.
IV solution was prepared by dissolving semaglutide in water containing disodium phosphate (0.014% w/v), propylene glycol (0.144% w/v), and phenol (0.056% w/v). The solution was diluted by 3 to reach semaglutide concentration of 0.046mg/mL and filtrated by a sterile 0.22 μm syringe filter.
Pharmacokinetic study protocol: Male Wistar rats (275–300 g, Harlan, Israel) were kept under a 12 h light/dark cycle, with free access to food and water. Animals were anesthetized, and an indwelling cannula was placed into the right jugular vein for systemic blood sampling. The cannula was tunneled beneath the skin and exteriorized at the dorsal part of the neck. The animals were transferred to individual cages to recover overnight (12–18 h). Throughout the experiments, free access to food was available 4 h post-oral administration.
Oral SNAC or salt formulations were dispersed in distilled water and then administrated by oral gavage (~1.2 mL for a rat to get semaglutide dose of 12 mg/kg). Blood samples (0.36 mL) were obtained by intravenous cannula, placed into the jugular vein. In the case of oral administration, samples were taken at 5 min pre-dose intervals and at different time points post-dose, according to the pharmacokinetic profile (no more than 10% of rat blood volume was drawn). To prevent dehydration, physiological solutions were administered, following each blood sampling. Plasma was separated by centrifugation (4000 rpm, 7 min, 4 °C) and stored at −20 °C until use.
Plasma samples were analyzed by a developed LC-MS method for semaglutide.
Absolute bioavailability values and other pharmacokinetic observations were assessed by comparison to intravenous bolus of semaglutide.
Semaglutide in plasma was performed in an Eppendorf® tube by mixing 150 μL of the plasma sample with 150 μL acetonitrile (ACN) and 15 μL of 5% formic acid (FA) and vortexed for 5 min. The tube was centrifuged at 15 °C, 6000 rpm for 6 min. Then, 160 μL of the supernatant was collected in a new tube. A second extraction was performed for the remaining precipitant by adding 60 μL of 5% FA, followed by mixing and centrifugation. Supernatant, 50 μL, was transferred into a tube. The solvent was evaporated to dryness, reconstituted with 50 μL 5% FA, and analyzed by an LC-MS system. Semaglutide standards were prepared by spiking semaglutide solutions in 5% FA into plasma to obtain final concentrations of 1–0.005 μg/mL. The same extraction procedure was performed on the standards as well.
MS/MS analyses were determined on a Sciex (Framingham, MA, USA) QTRAP® 6500^+ mass spectrometer). The chromatography analysis was performed using reverse-phase conditions using a Shimadzu (Kyoto, Japan) UHPLC System, consisting of a Shimadzu CBM-20A communication bus module, Nexera X2 LC-30AD pump, including a Shimadzu DGU-20A5R degasser, a Shimadzu SIL-30AC autosampler, and a Shimadzu CTO-20AC column oven. Liquid chromatography separation was obtained using 10 μL injections of samples onto an XBridge Peptide BEH C18 column (3.5 µm 300Å, 50 × 2.1 mm) from Waters Corp. (Milford, MA, USA), protected by a SecurityGuard™ (Phenomenex, Torrance, CA, USA) cartridge (C18, 2 × 2.1 mm). The column was maintained at 40 °C during the entire analysis. Gradient elution mobile phases consisted of 0.1% formic acid in water (Phase A) and 0.1% formic acid in methanol (Phase B). A flow rate of 0.2 mL/min was applied with a linear gradient from 60% to 80% B over 3.5 min and then held at 80% B for additional 4.5 min. The column was then equilibrated for 6 min at starting conditions prior to the injection of the next sample. The gradient elution program (0.2 mL/min) is described in Table 1.

[2] = dogs, semaglutide formulated with SNAC tablet; cited from earlier work
Source text: The professional literature has contained studies concerning the mechanism of SNAC to enhance permeability. […] SNAC increases lipophilicity of the formulation and causes a local increase in pH via a buffering action.

[3] = clinical study, cited from earlier work
Source text: Preclinical studies reached similar conclusions, although with slightly different values. It is important to remember that the study model, as well as the specific drug being investigated, plays a role in the results, as the drug’s properties and size also affect its absorption. Semaglutide, being ...

## CC[C@H](C)[C@H](NC(=O)[C@H](Cc1ccccc1)NC(=O)[C@H](CCC(=O)O)NC(=O)[C@H](CCCCNC(=O)COCCOCCNC(=O)COCCOCCNC(=O)CC[C@H](NC(=O)CCCCCCCCCCCCCCCCC(=O)O)C(=O)O)NC(=O)[C@H](C)NC(=O)[C@H](C)NC(=O)[C@H](CCC(N)=O)NC(=O)CNC(=O)[C@H](CCC(=O)O)NC(=O)[C@H](CC(C)C)NC(=O)[C@H](Cc1ccc(O)cc1)NC(=O)[C@H](CO)NC(=O)[C@H](CO)NC(=O)[C@@H](NC(=O)[C@H](CC(=O)O)NC(=O)[C@H](CO)NC(=O)[C@@H](NC(=O)[C@H](Cc1ccccc1)NC(=O)[C@@H](NC(=O)CNC(=O)[C@H](CCC(=O)O)NC(=O)C(C)(C)NC(=O)[C@@H](N)Cc1cnc[nH]1)[C@@H](C)O)[C@@H](C)O)C(C)C)C(=O)N[C@@H](C)C(=O)N[C@@H](Cc1c[nH]c2ccccc12)C(=O)N[C@@H](CC(C)C)C(=O)N[C@H](C(=O)N[C@@H](CCCNC(=N)N)C(=O)NCC(=O)N[C@@H](CCCNC(=N)N)C(=O)NCC(=O)O)C(C)C [semaglutide, Semaglutide]
[1]
  semaglutide absorption after oral administration not including SNACs: negligible semaglutide absorption
[2]
  semaglutide concentration underneath the tablet compared to 6 cm at a further distance: 10 fold

## SNAC–phosphatidylcholine [PC]
[1]; po, 12 mg/kg
  AUC0−8: 5083 ± 1478 ng·h/mL
  AUC0−∞: 7729 ± 2928 ng·h/mL
  Cmax: 945 ± 295 ng/mL
  fold increase in AUC0−8 over the original SNAC formulation: ~ 3 fold
  fold increase in AUC0−∞ over the original SNAC formulation: ~ 4 fold
  fold increase in F% over the original SNAC formulation: ~ 4 fold

## vitamin B12
[3]; oral vitamin B12 affected by SNAC
  absolute absorption, formulation with SNAC: 5%
[3]; oral vitamin B12 commercial product
  absolute absorption, commercial product: 2%
